Measured values from patent publication US12595239B2, “Substituted isoxazoline derivatives” (BASF SE, priority 2021, dated 2026).

Experiments:
Format in all cases: in vivo
Dichromothrips corbetti = assay: B.7 Orchid Thrips, floral-immersion test; details: adult thrips, 72 hours after treatment, read-out: mortality in comparison with untreated controls
Method: Dichromothrips corbetti adults used for bioassay were obtained from a colony maintained continuously under laboratory conditions. For testing purposes, the test compound was diluted in a 1:1 mixture of acetone:water (vol:vol), plus Kinetic at a rate of 0.01% v/v.
Thrips potency of each compound was evaluated by using a floral-immersion technique. Each orchid petal was dipped into treatment solution and allowed to dry in Petri dishes. Treated petals were placed into individual re-sealable plastic along with about 20 adult thrips. All test arenas were held under dark condition and a temperature of about 28° C. for duration of the assay. The percent mortality was recorded 72 hours after treatment.

[1] = test system: Trialeurodes vaporarirorum; assay: B.2 Greenhouse Whitefly, microtiter plate eggplant leaf disk test; details: foliar, 144 h, mortality of hatched crawlers, 6 days, read-out: mortality in comparison with untreated controls
Method: For evaluating control of Greenhouse Whitefly, the test unit consisted of 96-well-microtiter plates containing a leaf disk of eggplant leaf disk with Whitefly eggs. The compounds or mixtures were formulated using a solution containing 75% water and 25% DMSO. Different concentrations of formulated were sprayed onto the insect diet at 2.5 μl, using a custom-built micro atomizer, at two replications. After application, microtiter plates were incubated at 23±1° C., 65±5% RH for 6 days. Mortality of hatched crawlers was then visually assessed.

Nezara viridula = assay: B.8 Green Soldier Stink Bug, soybean pod spray test; details: 120 h, late 3rd instar, after 5 days, read-out: mortality in comparison with untreated controls
Method: The active compound was dissolved at the desired concentration in a mixture of 1:1 (vol:vol) distilled water:aceteone. Surfactant (Kinetic) was added at a rate of 0.01% (vol/vol). The test solution was prepared at the day of use. Soybean pods were placed in 90×50 mm glass Petri dishes lined with moistened filter paper and inoculated with ten late 3rd instar N. viridula. Using a hand atomizer, an approximately 2 ml solution was sprayed into each Petri dish. Treated setup was kept at about 25-26° C. and relative humidity of about 65-70%. Percent mortality was recorded after 5 days.

Spodoptera eridania = assay: B.11 Southern Armyworm 2nd instar larvae, lima bean foliar spray test; details: 96 h, 4 days after treatment, read-out: mortality in comparison with untreated controls
Method: The active compounds were formulated by a Tecan liquid handler in 100% cyclohexanone as a 10′000 ppm solution supplied in tubes. The 10′000 ppm solution was serially diluted in 100% cyclohexanone to make interim solutions. These served as stock solutions for which final dilutions were made by the Tecan in 50% acetone:50% water (v/v) into 10 or 20 ml glass vials. A nonionic surfactant (Kinetic®) was included in the solution at a volume of 0.01% (v/v). The vials were then inserted into an automated electrostatic sprayer equipped with an atomizing nozzle for application to plants/insects. Lima bean plants (variety Sieva) were grown 2 plants to a pot and selected for treatment at the 1st true leaf stage. Test solutions were sprayed onto the foliage by an automated electrostatic plant sprayer equipped with an atomizing spray nozzle. The plants were dried in the sprayer fume hood and then removed from the sprayer. Each pot was placed into perforated plastic bags with a zip closure. Ten to 11 armyworm larvae were placed into the bag and the bags zipped closed. Test plants were maintained in a growth room at about 25° C. and about 20-40% relative humidity for 4 days, avoiding direct exposure to fluorescent light (14:10 light:dark photo-period) to prevent trapping of heat inside the bags. Mortality and reduced feeding were assessed 4 days after treatment, compared to untreated control plants.

Plutella xylostella = assay: B.6 Diamond Back Moth, cabbage leaf disc dip test; details: foliar, 3rd instar larvae, 72 hours after treatment, read-out: mortality in comparison with untreated controls
Method: The active compound was dissolved at the desired concentration in a mixture of 1:1 (vol:vol) distilled water:acetone. Surfactant (Kinetic) was added at a rate of 0.01% (vol/vol). The test solution was prepared at the day of use. Cabbage leaf discs (60 mm in diameter) were dipped in test solution and air-dried. Treated leaves were placed in petri dishes lined with moistened filter paper and inoculated with ten 3rd instar larvae. Mortality was recorded 72 hours after treatment. Feeding damages were also recorded using a scale of 0-100%.

O=C(Nc1ccc(F)cc1F)c1cc(NC2=NOC(c3cccc(C(F)(F)F)c3)(C(F)(F)F)C2)ccc1Cl (centres unmarked) [I-38, 2-chloro-N-(2,4-difluorophenyl)-5-[[5-(trifluoromethyl)-5-[3-(trifluoromethyl)phenyl]-4H-isoxazol-3-yl]amino]benzamide]
≥ 75%: mortality at 300 ppm (Dichromothrips corbetti) | mortality at 2500 ppm [1] | mortality at 300 ppm (Nezara viridula) | mortality at 300 ppm (Spodoptera eridania) | mortality at 300 ppm (Plutella xylostella)
